Common to all, as to assay: relative viability (nuclei count vs DMSO), 5 days (fraction); higher = more cells survive
Compound in the assay “Shikonin + Olaparib”: CC(C)=CC[C@@H](O)C1=CC(=O)c2c(O)ccc(O)c2C1=O [Shikonin] + O=C(c1cc(Cc2n[nH]c(=O)c3ccccc23)ccc1F)N1CCN(C(=O)C2CC2)CC1 [Olaparib] (partner 8 µM)
The method in brief: (§1)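 Five library-drug doses in √10 steps were combined with a fixed anchor-drug dose, or a single drug was given alone, by pin tool to lung cancer cell lines in 1536-well plates the day after seeding. Nuclei were stained and counted after 5 days. Relative viability is the nuclei count in treated wells over that in vehicle wells, taken as the median of duplicate plates.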

Compound in the assay “Shikonin + Luminespib”: CC(C)=CC[C@@H](O)C1=CC(=O)c2c(O)ccc(O)c2C1=O [Shikonin] + CCNC(=O)c1noc(-c2cc(C(C)C)c(O)cc2O)c1-c1ccc(CN2CCOCC2)cc1 [Luminespib] (partner 0.01 µM)
The method in brief: as §1

Compound in assay [1]: CC(C)N(CCCNC(=O)Nc1ccc(C(C)(C)C)cc1)C[C@H]1O[C@@H](n2ccc3c(N)ncnc32)[C@H](O)[C@@H]1O + C[C@]1(O)C[C@@H](c2nc(-c3ccc4ccc(-c5ccccc5)nc4c3)c3c(N)nccn32)C1 [Linsitinib] (partner 1 µM)
In a few lines:
as §1

Compound in assay [2]: CC(C)N(CCCNC(=O)Nc1ccc(C(C)(C)C)cc1)C[C@H]1O[C@@H](n2ccc3c(N)ncnc32)[C@H](O)[C@@H]1O + Nc1ncn([C@H]2C[C@H](O)[C@@H](CO)O2)c(=O)n1 [Decitabine] (partner 2 µM)
The method in brief: as §1

Here are results for four cell lines from the supplement of paper PMC10307832.

In the case of PC-14, the relative viability turned out to be 0.282 with Shikonin + Olaparib (first compound 0.01 µM); 0.235 with Shikonin + Olaparib (first compound 0.1 µM); 0.191 with Shikonin + Olaparib (first compound 0.3162 µM); 0.121 with Shikonin + Olaparib (first compound 1 µM); 0.115 in the assay with Shikonin + Luminespib (first compound 0.01 µM); 0.12 in the assay with Shikonin + Luminespib (first compound 0.1 µM). Besides, the relative viability turned out to be 0.135 in the assay with Shikonin + Luminespib (first compound 0.3162 µM); 0.151 in the assay with Shikonin + Luminespib (first compound 1 µM); 0.962 in assay [1] (first compound 0.08 µM); 0.969 in assay [1] (first compound 0.253 µM); 0.979 in assay [1] (first compound 0.8 µM); 0.908 in assay [1] (first compound 2.53 µM). In addition, the relative viability in assay [1] (first compound 8 µM) amounted to 0.857; in assay [2] (first compound 0.08 µM) it was 0.191; in assay [2] (first compound 0.253 µM), 0.246; in assay [2] (first compound 0.8 µM), 0.215; in assay [2] (first compound 2.53 µM), 0.231; in assay [2] (first compound 8 µM) it was 0.206.

Regarding RERF-LC-KJ, the relative viability stood at 1.05 with Shikonin + Olaparib (first compound 0.01 µM); 1.08 with Shikonin + Olaparib (first compound 0.1 µM); 0.842 in the assay with Shikonin + Olaparib (first compound 0.3162 µM); 0.62 with Shikonin + Olaparib (first compound 1 µM); 1.2 with Shikonin + Luminespib (first compound 0.01 µM); 1.29 with Shikonin + Luminespib (first compound 0.1 µM). Besides, the relative viability was 1.2 with Shikonin + Luminespib (first compound 0.3162 µM); 1.11 in the assay with Shikonin + Luminespib (first compound 1 µM); 0.85 in assay [1] (first compound 0.08 µM); 0.93 in assay [1] (first compound 0.253 µM); 0.895 in assay [1] (first compound 0.8 µM); 0.897 in assay [1] (first compound 2.53 µM). The relative viability in assay [1] (first compound 8 µM) was found to be 0.794; in assay [2] (first compound 0.08 µM), 0.703; in assay [2] (first compound 0.253 µM), 0.685; in assay [2] (first compound 0.8 µM), 0.715; in assay [2] (first compound 2.53 µM) it was 0.639; in assay [2] (first compound 8 µM), 0.693.

Take SK-LU-1: the relative viability with Shikonin + Olaparib (first compound 0.01 µM) turned out to be 0.45; in the assay with Shikonin + Olaparib (first compound 0.1 µM), 0.413; with Shikonin + Olaparib (first compound 0.3162 µM), 0.441; in the assay with Shikonin + Olaparib (first compound 1 µM) it was 0.468; in the assay with Shikonin + Luminespib (first compound 0.01 µM), 0.212; in the assay with Shikonin + Luminespib (first compound 0.1 µM) it was 0.215. The relative viability with Shikonin + Luminespib (first compound 0.3162 µM) worked out at 0.198; in the assay with Shikonin + Luminespib (first compound 1 µM), 0.187; in assay [1] (first compound 0.08 µM), 0.94; in assay [1] (first compound 0.253 µM), 1.33; in assay [1] (first compound 0.8 µM), 1.17; in assay [1] (first compound 2.53 µM) it was 1.41. Further, the relative viability was determined as 0.953 in assay [1] (first compound 8 µM); 0.626 in assay [2] (first compound 0.08 µM); 0.642 in assay [2] (first compound 0.253 µM); 0.657 in assay [2] (first compound 0.8 µM); 0.702 in assay [2] (first compound 2.53 µM); 0.568 in assay [2] (first compound 8 µM).

Take SK-MES-1: the relative viability in the assay with Shikonin + Olaparib (first compound 0.01 µM) is 0.887; with Shikonin + Olaparib (first compound 0.1 µM), 0.665; with Shikonin + Olaparib (first compound 0.3162 µM), 0.723; with Shikonin + Olaparib (first compound 1 µM), 0.495; in the assay with Shikonin + Luminespib (first compound 0.01 µM) it was 0.969; with Shikonin + Luminespib (first compound 0.1 µM), 0.677. The relative viability amounted to 0.833 with Shikonin + Luminespib (first compound 0.3162 µM); 0.698 with Shikonin + Luminespib (first compound 1 µM); 1.06 in assay [1] (first compound 0.08 µM); 1.17 in assay [1] (first compound 0.253 µM); 1.11 in assay [1] (first compound 0.8 µM); 1.09 in assay [1] (first compound 2.53 µM). Also, the relative viability in assay [1] (first compound 8 µM) came out at 1.06; in assay [2] (first compound 0.08 µM), 0.436; in assay [2] (first compound 0.253 µM), 0.377; in assay [2] (first compound 0.8 µM) it was 0.36; in assay [2] (first compound 2.53 µM) it was 0.384; in assay [2] (first compound 8 µM) it was 0.377.
